Measurements published in US11713338B2, “Cyclic peptides multimers targeting α-4-β-7 integrin” (priority 2016, dated 2023).

Legend:
[1] = target: T1, recombinant integrin α4β7 (Homo sapiens, UniProt P13612+P26010, DEL724-798); experiment: Integrin α4β7—MAdCAM-1 ELISA competition assay; assay type: binding; conditions: for ELISA Assay Ratio b1/b7: ratio of a4b1 to a4b7 ELISA IC50; for IC50: read-out: ELISA a4b7 Assay IC50
T1 construct: purchased R&D Systems 5397-A3-050
T1 sequence (P13612 34-970 limits assumed): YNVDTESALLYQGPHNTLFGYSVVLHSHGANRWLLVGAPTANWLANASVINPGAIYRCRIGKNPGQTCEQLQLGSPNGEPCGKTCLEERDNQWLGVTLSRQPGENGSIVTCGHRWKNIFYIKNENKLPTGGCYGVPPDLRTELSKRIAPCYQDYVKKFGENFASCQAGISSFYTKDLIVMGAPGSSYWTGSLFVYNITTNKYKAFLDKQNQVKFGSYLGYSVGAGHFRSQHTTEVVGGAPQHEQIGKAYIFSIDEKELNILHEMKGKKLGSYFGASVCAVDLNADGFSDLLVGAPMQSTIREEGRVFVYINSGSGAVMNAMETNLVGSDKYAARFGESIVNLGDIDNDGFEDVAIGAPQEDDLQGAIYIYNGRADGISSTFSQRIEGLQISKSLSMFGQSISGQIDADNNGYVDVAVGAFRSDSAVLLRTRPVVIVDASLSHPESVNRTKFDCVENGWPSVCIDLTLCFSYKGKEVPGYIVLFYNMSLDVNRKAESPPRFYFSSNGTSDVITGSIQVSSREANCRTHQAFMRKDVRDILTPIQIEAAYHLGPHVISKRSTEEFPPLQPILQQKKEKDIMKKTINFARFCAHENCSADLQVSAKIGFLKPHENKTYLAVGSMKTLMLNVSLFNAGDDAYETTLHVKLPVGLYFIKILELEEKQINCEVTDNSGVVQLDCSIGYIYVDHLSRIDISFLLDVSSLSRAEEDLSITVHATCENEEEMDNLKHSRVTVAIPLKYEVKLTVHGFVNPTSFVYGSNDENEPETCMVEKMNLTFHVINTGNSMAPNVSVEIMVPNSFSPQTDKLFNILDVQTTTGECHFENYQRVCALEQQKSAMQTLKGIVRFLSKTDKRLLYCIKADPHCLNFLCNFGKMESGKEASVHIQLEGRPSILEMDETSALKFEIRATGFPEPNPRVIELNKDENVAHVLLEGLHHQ
T1 sequence (P26010 20-723 limits assumed): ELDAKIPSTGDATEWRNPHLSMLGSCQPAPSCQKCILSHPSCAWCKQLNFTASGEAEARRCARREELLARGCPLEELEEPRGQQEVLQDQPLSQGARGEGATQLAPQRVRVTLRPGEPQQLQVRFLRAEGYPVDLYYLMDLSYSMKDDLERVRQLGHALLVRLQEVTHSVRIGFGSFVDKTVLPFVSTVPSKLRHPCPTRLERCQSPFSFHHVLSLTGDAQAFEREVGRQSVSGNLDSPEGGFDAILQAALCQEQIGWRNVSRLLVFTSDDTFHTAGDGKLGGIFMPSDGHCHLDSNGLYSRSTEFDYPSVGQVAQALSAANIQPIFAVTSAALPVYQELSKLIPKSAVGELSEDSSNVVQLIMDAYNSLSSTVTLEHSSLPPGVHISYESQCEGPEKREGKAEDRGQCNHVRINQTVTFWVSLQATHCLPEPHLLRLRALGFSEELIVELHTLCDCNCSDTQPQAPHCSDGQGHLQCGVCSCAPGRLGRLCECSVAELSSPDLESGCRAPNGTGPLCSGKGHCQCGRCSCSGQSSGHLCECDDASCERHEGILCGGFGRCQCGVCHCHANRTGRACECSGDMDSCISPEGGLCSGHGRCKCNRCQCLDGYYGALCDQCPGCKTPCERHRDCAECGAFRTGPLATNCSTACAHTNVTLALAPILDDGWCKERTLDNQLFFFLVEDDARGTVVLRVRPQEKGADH
Description: Integrin α4β7—MAdCAM-1 ELISA Competition Assay
The plate was incubated at 40C overnight. […] The plate was then incubated for 1 hour at room temperature. The plate was washed three times with wash buffer (50 mM Tris, 100 mM NaCl, 1 mM MnCl2, 0.05% Tween). To each well, 50 μl of compound diluted in assay buffer was added by transfer from a compound serial dilution plate. […] The plate was incubated at room temperature with shaking (300 rpm) for 2 hours to reach binding equilibrium. […] The plate was incubated at room temperature for 1 hour under agitation.

[2] = target: T2, recombinant integrin α4β1 (Homo sapiens, UniProt P05556+P13612); experiment: Integrin α4β1—VCAM-1 competition ELISA; assay type: binding; conditions: for IC50: read-out: ELISA a4b1 Assay IC50
T2 construct: purchased R&D Systems 5397-A3-050
Description: Integrin α4β1—VCAM-1 Competition ELISA
The plate was incubated at 4° C. overnight. […] The plate was then incubated for 1 hour at room temperature. The plate was washed three times with wash buffer (50 mM Tris, 100 mM NaCl, 1 mM MnCl2, 0.05% Tween). To each well, 50 μl of compound diluted in assay buffer was added by transfer from a compound serial dilution plate. […] The plate was incubated at room temperature with shaking (300 rpm) for 2 hours to reach binding equilibrium. Then the plate was washed three times in wash buffer and 100 μl anti-human IgG Fc specific-HRP (Abcam, Ab97225) diluted at 1:2000 in assay buffer was added to each well. The plate was incubated at room temperature for 1 hour under agitation.

T2 sequence (P05556 21-728 limits assumed, one chain of several): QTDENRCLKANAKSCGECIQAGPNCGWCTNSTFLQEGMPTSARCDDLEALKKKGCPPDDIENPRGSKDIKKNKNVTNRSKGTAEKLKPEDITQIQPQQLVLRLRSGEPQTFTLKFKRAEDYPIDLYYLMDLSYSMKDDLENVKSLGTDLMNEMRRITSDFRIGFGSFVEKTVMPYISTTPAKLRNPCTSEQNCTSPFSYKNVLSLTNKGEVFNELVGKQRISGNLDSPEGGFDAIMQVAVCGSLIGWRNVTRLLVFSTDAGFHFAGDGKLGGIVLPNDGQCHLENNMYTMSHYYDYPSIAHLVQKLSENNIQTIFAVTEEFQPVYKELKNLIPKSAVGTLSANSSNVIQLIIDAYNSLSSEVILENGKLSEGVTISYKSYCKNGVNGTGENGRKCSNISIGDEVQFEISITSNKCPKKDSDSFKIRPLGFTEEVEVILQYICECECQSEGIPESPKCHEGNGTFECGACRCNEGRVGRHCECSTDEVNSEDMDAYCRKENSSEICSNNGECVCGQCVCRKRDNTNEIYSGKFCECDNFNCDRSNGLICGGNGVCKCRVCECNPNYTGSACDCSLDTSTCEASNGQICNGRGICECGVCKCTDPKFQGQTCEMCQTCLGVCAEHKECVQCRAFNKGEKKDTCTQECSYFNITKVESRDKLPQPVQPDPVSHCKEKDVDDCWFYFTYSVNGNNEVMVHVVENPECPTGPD

SMILES | ELISA Assay Ratio b1/b7 [1] | IC50 [1] [nM] | IC50 [2] [nM] | ELISA Assay Ratio β1/β7 ([2]; ratio of ELISA IC50s, α4β1 over α4β7)
CC(C)C[C@@H]1NC(=O)[C@H](Cc2ccc3ccccc3c2)NC(=O)[C@@H]2CCCN2[C@H](C(=O)NC(C)(C)C)[C@H](C)NC(=O)[C@H]([C@@H](C)O)NC(=O)[C@H](CC(=O)O)NC1=O [Compound 10] | 1.3 | 52 | 70 | 
CC(C)C[C@@H]1NC(=O)[C@@H](CCCN(C)C)NC(=O)[C@@H]2CCCN2[C@H](C(=O)NC(C)(C)C)[C@H](C)NC(=O)[C@H]([C@@H](C)O)NC(=O)[C@H](CC(=O)O)NC1=O [Compound 83] | 6.9 | 179 | 1230 | 
CC(C)C[C@@H]1NC(=O)[C@H](Cc2ccc(-c3ccccc3)cc2)NC(=O)[C@@H]2C[C@@H](F)CN2[C@H](C(=O)NC(C)(C)C)[C@H](C)NC(=O)[C@H]([C@@H](C)O)NC(=O)[C@H](CC(=O)O)NC1=O [Compound 46] | 2.4 | 106 | 258 | 
CC[C@@H](C)[C@@H]1NC(=O)[C@H](CC(=O)O)NC(=O)[C@H](CC(C)C)NC(=O)C[C@H](CCCCN)NC(=O)[C@H](Cc2ccc(CN)cc2)NC(=O)[C@@H]2CCCN2[C@H](C(=O)NC(C)(C)C)[C@H](C)NC1=O [Compound 285] | 6.2 | 89 | 553 | 
CC(C)C[C@@H]1NC(=O)[C@@H]2C[C@@H](OCc3ccccc3)CN2C(=O)[C@@H]2CCCN2[C@H](C(=O)NC(C)(C)C)[C@H](C)NC(=O)[C@H]([C@@H](C)O)NC(=O)[C@H](CC(=O)O)NC1=O [Compound 57] | 2.5 | 59 | 148 | 
CC(C)C[C@@H]1NC(=O)[C@H](C2CCCCC2)NC(=O)[C@@H]2CCCN2[C@H](C(=O)NC(C)(C)C)[C@H](C)NC(=O)[C@H]([C@@H](C)O)NC(=O)[C@H](CC(=O)O)NC1=O [Compound 91] | 14.5 | 126 | 1820 | 
CC(C)C[C@@H]1NC(=O)C2(CCCC2)NC(=O)[C@@H]2CCCN2[C@H](C(=O)NC(C)(C)C)[C@H](C)NC(=O)[C@H]([C@@H](C)O)NC(=O)[C@H](CC(=O)O)NC1=O [Compound 88] | 14.9 | 11 | 166 | 
CC(C)C[C@@H]1NC(=O)[C@H](CCc2ccccc2)NC(=O)[C@@H]2CCCN2[C@H](C(=O)NC(C)(C)C)[C@H](C)NC(=O)[C@H]([C@@H](C)O)NC(=O)[C@H](CC(=O)O)NC1=O [Compound 6] | 1.9 | 103 | 200 | 
CC(C)C[C@@H]1NC(=O)[C@H]2CCCCN2C(=O)[C@H](Cc2ccc(O)cc2)N(C)C(=O)[C@@H]2CCCN2[C@H](C(=O)NC(C)(C)C)[C@H](C)NC(=O)[C@H]([C@@H](C)O)NC(=O)[C@H](CC(=O)O)NC1=O [Compound 148] |  |  | 105 | 
CC(C)C[C@@H]1NC(=O)c2ccc(-c3ccccc3N3CCNCC3)c(c2)CNC(=O)[C@@H]2CCCN2[C@H](C(=O)NC(C)(C)C)[C@H](C)NC(=O)[C@H]([C@@H](C)O)NC(=O)[C@H](CC(=O)O)NC1=O [Compound 348] | 1.5 | 27 | 41 | 
CC(C)C[C@@H]1NC(=O)[C@H]2CCCCN2C(=O)[C@H](Cc2ccccc2I)NC(=O)[C@@H]2CCCN2[C@H](C(=O)NC(C)(C)C)[C@H](C)NC(=O)[C@H]([C@@H](C)O)NC(=O)[C@H](CC(=O)O)NC1=O [Compound 133] | 5.3 | 15 | 80 | 
CC(C)C[C@@H]1NC(=O)[C@H]2CCCCN2C(=O)[C@@H]2CCCN2[C@H](C(=O)NC(C)(C)C)[C@H](C)NC(=O)[C@H]([C@@H](C)O)NC(=O)[C@H](CC(=O)O)NC1=O [Compound 51] | 3.3 | 31 | 102 | 
COc1cccc(-c2ccccc2C[C@@H]2NC(=O)[C@@H]3CCCN3[C@H](C(=O)NC(C)(C)C)[C@H](C)NC(=O)[C@H]([C@@H](C)O)NC(=O)[C@H](CC(=O)O)NC(=O)[C@H](CC(C)C)NC(=O)[C@H]3CCCCN3C2=O)c1 [Compound 136] | 6.6 | 32 | 209 | 
CC(C)C[C@@H]1NC(=O)CN(C)C(=O)[C@H](Cc2cccc(I)c2)NC(=O)[C@@H]2CCCN2[C@H](C(=O)NC(C)(C)C)[C@H](C)NC(=O)[C@H]([C@@H](C)O)NC(=O)[C@H](CC(=O)O)NC1=O [Compound 106] | 18.7 | 59 | 1110 | 
CC(C)C[C@@H]1NC(=O)c2ccc(-c3ccncc3)c(c2)CNC(=O)[C@H](Cc2ccc(O)cc2)NC(=O)[C@@H]2CCCN2[C@H](C(=O)NC(C)(C)C)[C@H](C)NC(=O)[C@H]([C@@H](C)O)NC(=O)[C@H](CC(=O)O)NC1=O [Compound 337] | 2.9 | 61 | 177 | 
CC(C)C[C@@H]1NC(=O)[C@@H](CCCCN)NC(=O)[C@H](Cc2ccc(O)cc2)NC(=O)[C@@H]2CCCN2[C@H](C(=O)NC(C)(C)C)[C@H](C)NC(=O)[C@H]([C@@H](C)O)N(C)C(=O)[C@H](CC(=O)O)NC1=O [Compound 121] | 11.4 | 192 | 2190 | 
CC(C)C[C@@H]1NC(=O)C[C@H](CCCCN)NC(=O)[C@@H](CCCNC(=N)N)NC(=O)[C@@H]2CCCN2[C@H](C(=O)NC(C)(C)C)[C@H](C)NC(=O)[C@H]([C@@H](C)O)NC(=O)[C@H](CC(=O)O)NC1=O [Compound 217] |  |  | 1090 | 
CC(C)C[C@@H]1NC(=O)[C@@H]2CCN2C(=O)C[C@H](CCCCN)NC(=O)[C@@H]2CCCN2[C@H](C(=O)NC(C)(C)C)[C@H](C)NC(=O)[C@H]([C@@H](C)O)NC(=O)[C@H](CC(=O)O)NC1=O [Compound 319] |  |  | 309 | 
CC(C)C[C@@H]1NC(=O)[C@H](Cc2cccnc2)NC(=O)[C@@H]2C[C@@H](O)CN2[C@H](C(=O)NC(C)(C)C)[C@H](C)NC(=O)[C@H]([C@@H](C)O)NC(=O)[C@H](CC(=O)O)NC1=O [Compound 44] |  |  | 188 | 
CC(C)C[C@@H]1NC(=O)C[C@H](CCCCN)N(C)C(=O)[C@H](CCCCNC(=O)c2cc(C(=O)O)cc(C(=O)NCCCC[C@@H]3NC(=O)[C@@H]4CCCN4[C@H](C(=O)NC(C)(C)C)[C@H](C)NC(=O)[C@H]([C@@H](C)O)NC(=O)[C@H](CC(=O)O)NC(=O)[C@H](CC(C)C)NC(=O)C[C@H](CCCCN)N(C)C3=O)c2)NC(=O)[C@@H]2CCCN2[C@H](C(=O)NC(C)(C)C)[C@H](C)NC(=O)[C@H]([C@@H](C)O)NC(=O)[C@H](CC(=O)O)NC1=O [Compound 537] |  |  |  | 0.4
CCO[C@H](C)[C@@H]1NC(=O)[C@H](CC(=O)O)NC(=O)[C@H](CC(C)C)NC(=O)[C@H](Cc2ccccc2)NC(=O)[C@@H]2CCCN2[C@H](C(=O)NC(C)(C)C)[C@H](C)NC1=O [Compound 41] |  |  | 106 | 
CC(C)C[C@@H]1NC(=O)[C@H]2c3ccccc3CCN2C(=O)[C@@H]2CCCN2[C@H](C(=O)NC(C)(C)C)[C@H](C)NC(=O)[C@H]([C@@H](C)O)NC(=O)[C@H](CC(=O)O)NC1=O [Compound 98] |  |  | 58 | 
